How the values were obtained:
HIV-1 = test: AZT and Compound No. 2 in combination, HIV-1 infected monocyte cultures, RT activity; format: cell-based; conditions: for reverse transcriptase activity in supernatant: 100 nM Compound No. 2, AZT 0
Protocol: Primary human monocytes were obtained from peripheral blood by Ficoll-Hypaque centrifugation and adherence to plastic as described previously. Gartner S. P., et al., 1986, Science 233:215. Briefly, after Ficoll-Hypaque (Pharmacia) separation, PBMCs were washed 4 times with DMEM (the last wash was done at 800 rpm to remove platelets) and resuspended in monocyte culture medium [DMEM supplemented with 1 mM glutamine, 10% heat-inactivated human serum, 1% penicillin+streptomycin mixture (Sigma)] at a density of 6×10^6 cells/ml. Cells were seeded in 24-well plates (1 ml per well) and incubated for 2 h at 37° C, 5% CO2. Following incubation, cells were washed 3 times with DMEM to remove non-adherent cells and incubation was continued in monocyte culture medium supplemented with 250 U/ml human M-CSF (Sigma). Cells were allowed to mature for 7 days prior to infection with the monocyte-tropic strain, HIV-1ADA. Nuovo, G. J., et al., 1992, Diagn. Mol. Pathol. 1:98. Two hours after infection, cells were washed with medium and cultured in RPMI supplemented with 10% human serum. In experiments where PCR analysis was performed, virus was pretreated with RNAse-free DNAse (Boehinger-Mannheim) for 2 h at room temperature and then filtered though a 0.2 μm pore nitrocellulose filter prior to infection.
For the reverse transcriptase (RT) assay, 10 μl of culture supernatant was added to 40 μl of reaction mixture (final composition was 50 mM Tris-HCl, pH 7.8; 20 MM KCl; 5 MM MgCl2; 1 mM DTT; 0.1% Triton X-100; 0.2 OD/ml polyA; 0.2 OD/ml oligo(dT)12-18; and 40 μCi/ml ^3H-dTTP (76 Ci/mmol, DuPont) and incubated 2 hr at 37° C. 5 μl of the reaction mixture was then spotted onto the DE 81 (Whatman) paper. Paper was air dried and washed 5 times with 5% Na2HPO4, followed by rinsing with distilled water. After air drying, paper was put on a Flexi Filter plate (Packard), covered with scintillation fluid and counted in a Top Count Microplate Counter (Packard). Results are expressed as counts per minute in 1 ml of supernatant (cpm/ml).
In view of these premises, the effects on HIV-1 replication in human monocyte cultures of the various concentrations of AZT, alone or in combination with 100 nM Compound No. 2, were tested using the protocols of Sections 6.2.1 and 6.2.2. Drugs were added to the monocyte cultures together with HIV-1 at about 10^5 TCID/ml. The concentration of drugs was maintained on refeeding. HIV-1 replication was assessed by assay of the supernatant for reverse transcriptase activity. The results are expressed as mean ± std. dev. (cpm×10^−3) in Table V.

[1] = molecular target: T1, MA associated with the HIV-1 pre-integration complex (Human immunodeficiency virus type 1 group M subtype B, UniProt P05890+P05959); test: Reaction of [14C]CNI-H0294 with MA in HIV-1 pre-integration complexes after borohydride reduction; format: binding; conditions: 10 μM [14C]-CNI-H0294, borohydride reduction, HIV-1-infected cell extracts
T1 construct: MA is made from the Gag precursor and RT is made from the Gag-Pol precursor; endogenous in cells; host or cells: cytoplasmic extract of H9 cells infected with HIV-1RF
Protocol: Cytoplasmic extracts from HIV-1RF-infected H9 cells were treated with [^14C]CNI-H0294 (10 μM). After borohydride reduction the extracts were immunoprecipitated with anti-MA (αMA), anti-IN (αIN), or pre-immune serum (PI). […] Immunoprecipitated radioactivity was quantified in a scintillation counter.
Cytoplasmic lysates prepared from HIV-1-infected cells were treated with 10 μM of [^14C]-labeled CNI-H0294 (specific activity 5×10^4 cpm/nmol) in 1 ml extraction buffer adjusted to 0.14 M NaCl. Sodium borohydride was then added to a final concentration 10 mM and samples were incubated 1 hr at room temperature prior to immunoprecipitation to reduce double bonds of Schiff bases to an irreversible secondary amine. Immunoprecipitation was performed as described above, but beads were stringently washed three times with PBS supplemented with 0.1% SDS, 1% sodium deoxycholate, 1 μg/ml each of aprotinin and leupeptin, and 1 mM PMSF.
To discriminate between these two possibilities, cytoplasmic extracts of HIV-1-infected cells were treated with [^14C]-CNI-H0294 and then with sodium borohydride, to reduce the reversible Schiff bases hypothesized to form between the compound and the lysines of MA NLS and convert the attached drug molecules to irreversible adducts. […] Without borohydride treatment, no radioactivity was immunoprecipitated with MA.

[2] = system: BSA with conjugated NLS peptides that mimic the NLS of SV40 large T antigen; test: Nuclear import of BSA with conjugated NLS peptides of SV40 large T antigen
[3] = molecular target: T2, recombinant RT (p51/p66 heterodimer) (Human immunodeficiency virus type 1 group M subtype B, UniProt P04585); test: Binding of [14C]-CNI-H0294 to recombinant RT in solution (immunoprecipitation); parameters: species or system HIV-1; conditions: 20 nmol [14C]-CNI-H0294 with 0.28 nmol RT
T2 construct: recombinant MA or RT (a p51/p66 heterodimer)
Protocol: Twenty nmol of [^14C]-CNI-HO294 were mixed with 0.28 nmol of recombinant MA or RT (a p51/p66 heterodimer) in 40 μl of binding buffer. Samples were incubated for 2 h at 37° C. in the presence or absence of 200 nmol of unlabeled CNI-H0294. MA and RT proteins were immunoprecipitated using protein G agarose and sheep polyclonal anti-MA (αMA) or rabbit anti-RT (αRT) sera, respectively. Pre-immune sera (PI) was used as control. Bound material was eluted from protein G using 0.1 M glycine buffer [pH 2.8] and the radioactivity in the eluate was quantified in a scintillation counter.
Recombinant RT (0.2 μM) was incubated with 3.3 μM of [^14C ]-labeled CNI-H0294 and increasing concentrations of unlabeled (cold) CNI-3094. The amount of [^14C]-CNI-H0294 that bound to RT was measured as in FIG. 11.
0.28 nanomoles of recombinant MA or RT [p66/p51 ] dimer were mixed with 20 nmol of [^14C] CNI-HO294 (specific activity 5×10^4 cpm/nmol) and incubated 2 hr at room temperature in 40 μl of binding buffer (PBS supplemented with 1% BSA, 0.1% Tween 20, 1 μg/ml leupeptin, 1 μg/ml aprotinin, 1 mM PMSF). Sheep anti-MA or rabbit anti-RT sera (both obtained from NIH AIDS Research and Reference Reagent Program) or pre-immune control sera were then added (at 1:100 dilution) and incubation continued for another 1 hr at room temperature. Immune complexes were precipitated with protein G-agarose, washed, and then eluted with 0.1 M glycine, pH 2.8. Radioactivity of the eluate was measured in a scintillation counter.

CC(=O)c1cc(Nc2cc(C)[n+](C)c(N)n2)cc(C(C)=O)c1.[I-] [Compound No. 2, 2-amino-4-(3,5-diacetylphenyl)amino-1,6-dimethylpyrimidinium iodide]
reverse transcriptase activity in supernatant (HIV-1; day-7): 0.37 ± 0.07 cpm×10^−3 | reverse transcriptase activity in supernatant (HIV-1; day-11): 0.72 ± 0.30 cpm×10^−3 | reduction in RT activity (HIV-1; day-11, 100 nM Compound No. 2 alone): ~60%

CC(=O)c1cc(Nc2cc(C)[n+](C)c(N)n2)cc(C(C)=O)c1 [CNI-0294, 2-Amino-4-(3,5-diacetylphenyl)amino-1,6-dimethylpyrimidinium chloride]
radioactivity immunoprecipitated by anti-MA serum [1]: a significant amount of radioactivity was immunoprecipitated by anti-MA serum | block of nuclear import of BSA with conjugated NLS peptides [2]: did not block | CNI-H0294 immunoprecipitable with RT [3]: ~0.34 nmol | radioactivity immunoprecipitable with RT ([3]; specific activity 50,000 cpm/nmol): about 17,000 cpm

Source: patent US6649797B2, “Compounds and methods of use to treat infectious diseases” (The Picower Institute for Medical Research, priority 1996, dated 2003)
